Assay results from ChEMBL document CHEMBL4190255, “Novel celastrol derivatives with improved selectivity and enhanced antitumour activity: Design, synthesis and biological evaluation” (Eur J Med Chem, 2017).

Tests used:
MIA PaCa-2 = assay: Antiproliferative activity against human MIAPaCa2 cells after 72 hrs by MTT assay; assay type: functional, cell-based; conditions: MIA PaCa-2, 72 h
A549 = assay: Antiproliferative activity against human A549 cells after 72 hrs by MTT assay; assay type: functional, cell-based; conditions: A549, 72 h
[1] = Selectivity index, ratio of IC50 for human BJ cells to IC50 for human MIAPaCa2 cells; assay type: toxicity; conditions: BJ cells versus MIAPaCa2 cells, read-out: Ratio IC50
[2] = Selectivity index, ratio of IC50 for human BJ cells to IC50 for human A549 cells; assay type: toxicity; conditions: BJ cells versus A549 cells, read-out: Ratio IC50
SK-BR-3 = assay: Antiproliferative activity against human SKBR3 cells after 72 hrs by MTT assay; assay type: functional, cell-based; conditions: SK-BR-3, 72 h
[3] = Selectivity index, ratio of IC50 for human BJ cells to IC50 for human SKOV3 cells; assay type: toxicity; conditions: BJ cells versus SKOV3 cells, read-out: Ratio IC50

| SMILES | IC50 (MIA PaCa-2) | IC50 (A549) | selectivity ratio [1] | selectivity ratio [2] | IC50 (SK-BR-3) | selectivity ratio [3] |
| --- | --- | --- | --- | --- | --- | --- |
| CC1=C(O)C(=O)C=C2C1=CC=C1[C@@]2(C)CC[C@@]2(C)[C@@H]3C[C@](C)(NC(=O)NO)CC[C@]3(C)CC[C@]12C | 0.85 µM | 3.5 µM | – | – | – | – |
| CC(=O)Oc1cc2c(c(C)c1OC(C)=O)CC=C1[C@@]2(C)CC[C@@]2(C)[C@@H]3C[C@](C)(N=C=O)CC[C@]3(C)CC[C@]12C | 1.41 µM | 2.89 µM | – | – | – | – |
| CC1=C(O)C(=O)C=C2C1=CC=C1[C@@]2(C)CC[C@@]2(C)[C@@H]3C[C@](C)(C(=O)O)CC[C@]3(C)CC[C@]12C [CELASTROL] | – | – | 5.97 | 1.75 | 0.72 µM | 2.34 |
| CC1=C(O)C(=O)C=C2C1=CC=C1[C@@]2(C)CC[C@@]2(C)[C@@H]3C[C@](C)(NC(=O)Nc4ccccc4)CC[C@]3(C)CC[C@]12C | 0.4 µM | 2.27 µM | – | – | – | – |
| CCNC(=O)N[C@]1(C)CC[C@]2(C)CC[C@]3(C)C4=CC=C5C(=CC(=O)C(O)=C5C)[C@]4(C)CC[C@@]3(C)[C@@H]2C1 | 0.55 µM | 1.41 µM | – | – | – | – |
| CC(=O)Oc1cc2c(c(C)c1OC(C)=O)C(=O)C=C1[C@@]2(C)CC[C@@]2(C)[C@@H]3C[C@](C)(C(=O)O)CC[C@]3(C)CC[C@]12C | > 5 µM | > 15 µM | – | – | – | – |
| Cc1c(O)c(O)cc2c1C(=O)C=C1[C@@]2(C)CC[C@@]2(C)[C@@H]3C[C@](C)(NC(N)=O)CC[C@]3(C)CC[C@]12C | > 5 µM | > 15 µM | – | – | – | – |
| CNC(=O)N[C@]1(C)CC[C@]2(C)CC[C@]3(C)C4=CC(=O)c5c(cc(O)c(O)c5C)[C@]4(C)CC[C@@]3(C)[C@@H]2C1 | > 5 µM | > 15 µM | – | – | – | – |
| CC1=C(O)C(=O)C=C2C1=CC=C1[C@@]2(C)CC[C@@]2(C)[C@@H]3C[C@](C)(NC(N)=O)CC[C@]3(C)CC[C@]12C | 0.63 µM | 2.48 µM | – | – | – | – |
| CC(=O)Oc1cc2c(c(C)c1OC(C)=O)C(=O)C=C1[C@@]2(C)CC[C@@]2(C)[C@@H]3C[C@](C)(N=C=O)CC[C@]3(C)CC[C@]12C | > 5 µM | > 15 µM | – | – | – | – |
